The source of these data is US9096543B2, “Nuclear transport modulators and uses thereof” (Karyopharm Therapeutics Inc., priority 2012, dated 2015).

The test system of one data set is IMQ-induced psoriasis. Briefly: Imiquimod (IMQ)-induced dermal inflammation/psoriasis model (Study 2). The class given is in vivo, BALB/c mice. The conditions noted are these: Compound 2 2.5 mg/kg. Here is the method: Forty (40) male BALB/c mice (Biological E Limited, Hyderabad (CPCSEA registration number: 36/99/CPCSEA)) were divided into four (4) groups consisting of ten (10) mice each. Animals were randomized based on their body weight. The groups were designated as Group-I (Nave), Group-II (IMQ; vehicle (PEG 400 and HPBCD)), Group-III (IMQ; Compound 2 (2.5 mg/kg)) and […] (IMQ; cyclophosphamide (10 mg/kg)).
A small area on the dorsum of each mouse was shaved, ensuring that these areas were of equal size/area. Psoriasis was induced in Groups II to IV by topical application of 50 mg of IMQ cream daily from Day 1 to Day 6 on the dorsum of the animals. On Day 1 and Day 2 of the study, four hours after topical application of IMQ, Compound 2 or positive control (cyclophosphamide) or vehicle were administered to animals in pertinent groups. Of note, animals in Group II and Group III were subjected to subcutaneous injections, whereas animals in Group IV received oral administration. The Compound 2, vehicle and cyclophosphamide treatment was terminated on Day 2. These groups of animals were maintained on daily IMQ treatments until Day 6. On Day 7, the psoriasis-induced animals were re-randomized into 3 groups consisting of 10 animals each based on Cumulative Disease Activity Index (CDAI). From Day 7 to Day 9, animals received vehicle or positive control or Compound 2. Of note, on these days animals were not treated with IMQ. From Day 10 to Day 14, the animals were treated alternatively with IMQ (Days 10, 12 and 14), or vehicle, positive control or Compound 2 (Days 11, 13).
All animals were observed daily for a period of […] for gross observations, body weight and feed and water intake. On Days 1 and 2, scorings of erythema, scaling, folding and thickening of skin were recorded 2 hours after administration of vehicle/positive control/test compounds, and on Days 3 to 14 scorings were recorded 4 hours after IMQ application, or administration of positive control, vehicle or Compound 2.
Vehicle was prepared by dissolving 40 mg of HPBCD in 70.0 mL of distilled water. Compound 2 was prepared by dissolving 3.59 mg in 0.5% PVP and 0.5% Pluronic. Cyclophosphamide was prepared by dissolving 500 mg of CMC in 100 mL distilled water.
The experimental results shown in Table 10 are expressed as mean±SEM. Data was assessed using one-way ANOVA, and post hoc analysis was performed using Dunnett's test.

For a further data set, the system named is Nrf2 pathway. Kind of data set: Nrf2 pathway induction in THP-1 cells with or without KEAP1 knockdown (quantitative PCR). It is filed as cell-based, human. The source says: THP-1 (human acute monocytic leukemia cells) cells were used to evaluate the effects of Compound 1 on the Nrf2 pathway in an inflammation environment. Nuclear factor (erythroid-derived 2)-like 2 (Nrf2) is an anti-inflammatory transcription factor. Under normal conditions, Nrf2 is kept in the cytoplasm by Kelch like-ECH associated protein 1 (KEAP1), which degrades Nrf2 by ubiquitination. Nrf2 can also move into the nucleus and back into the cytoplasm as a CRM1 cargo. In the current study, Nrf2 was protected from degradation by knocking down KEAP1 with siRNA. Then, KEAP1-depleted cells were treated with TNFα to induce inflammation, and the ability of Compound 1 to reverse inflammation by up-regulation of the Nrf2 pathway was tested.
THP-1 (acute monocytic leukemia) cells were plated in two 10 cm culture dishes (6*10^6 cells/dish) with RPMI-1640 medium (Lonza) supplemented with 10% heat-inactivated fetal bovine serum (Invitrogen) and 2-mercaptoethanol to a final concentration of 0.05 mM. Cells in one dish were transfected with 50 nM of KEAP1 siRNA (Life Technologies, Silencer Select, siRNA ID# s18982) using Lipofectamine RNAiMax (Invitrogen), whereas the cells in the other dish were transfected with 50 nM of control siRNA, Block-iT (Invitrogen). Transfected cells were left for 72 h and the KEAP1 knockdown efficiency was calculated with quantitative PCR using a probe against KEAP1.
Next, the cells from each of the dishes were divided equally into 4 wells in different 6-well plates. One of the wells from each of the plates was pre-treated with 1 μM of Compound 1 for 1 h, followed by 20 ng/mL TNFα for 24 h. The other wells were treated with either 1 μM Compound 1 or 20 ng/mL TNFα or neither for 24 h. Following the treatment, RNA was extracted from the cells using an RNA extraction kit (Qiagen). RNA samples from each treatment group were reverse transcribed and real-time PCR was performed on the corresponding cDNA sequences using probes against Nrf2 and two of its downstream genes, NQO1 and EPHX1. THP-1 cells were transfected with KEAP1 siRNA. 40% knockdown efficiency was achieved. […]

“Also recorded” adds a separate entry of the source.

`O=C(/C=C\n1cnc(-c2cc(C(F)(F)F)cc(C(F)(F)F)c2)n1)NNC(=O)CN1CCOCC1` [Compound 2, (Z)-3-(3-(3,5-bis(trifluoromethyl)phenyl)-1H-1,2,4-triazol-1-yl)-N′-(2-morpholinoacetyl)acrylohydrazide]: the “body weight, food consumption and water intake” value in the data set on IMQ-induced psoriasis is recorded as “without greatly impacting the consumption of food or water”. In addition, the “rate of reduction of disease activity index compared to vehicle” value in the data set with IMQ-induced psoriasis (2.5 mg/kg) is listed as “significantly greater than that observed in animals treated with vehicle; also recorded: diminished IMQ-induced disease manifestation”.
For the compound `CC(C)(C)C(=O)NNC(=O)/C=C\n1cnc(-c2cc(C(F)(F)F)cc(C(F)(F)F)c2)n1` [Compound 1, (Z)-3-(3-(3,5-bis(trifluoromethyl)phenyl)-1H-1,2,4-triazol-1-yl)-N′-pivaloylacrylohydrazide], the EPHX1 expression entry in the data set with Nrf2 pathway (1 μM Compound 1, presence or absence of TNFα) is “up-regulated the expression of EPHX1 in the presence or absence of TNFα”. Moreover, in the data set on Nrf2 pathway (1 μM Compound 1 alone, with or without KEAP1 knockdown), the Nrf2 expression entry is recorded as “did not have any significant effect on Nrf2 expression”. Besides, in the data set on Nrf2 pathway (1 μM Compound 1 for 24 hrs with 20 ng/mL TNFα), the Nrf2 signaling entry is given as “up-regulated Nrf2 signaling”.
